ChEMBL document CHEMBL4725442, “Exception That Proves the Rule: Investigation of Privileged Stereochemistry in Designing Dopamine DR Bitopic Agonists” (ACS Med Chem Lett, 2020)

Columns and labels:
Format in all cases: cell-based
D(2) dopamine receptor = D(2) dopamine receptor (Homo sapiens, UniProt P14416); assay: Displacement of [3H]-(R)-(+)-7-OH-DPAT from human D2L receptor expressed in HEK293 cells after 90 mins by microbeta counting based assay
D(1A) dopamine receptor [1] = target: T1, D(1A) dopamine receptor (Homo sapiens, UniProt P21728); assay: Displacement of [3H]-SCH23390 from human D1 receptor expressed in HEK293 cells at 100 uM after 60 mins by microbeta counting based assay relative to control
T1 sequence (P21728 whole entry): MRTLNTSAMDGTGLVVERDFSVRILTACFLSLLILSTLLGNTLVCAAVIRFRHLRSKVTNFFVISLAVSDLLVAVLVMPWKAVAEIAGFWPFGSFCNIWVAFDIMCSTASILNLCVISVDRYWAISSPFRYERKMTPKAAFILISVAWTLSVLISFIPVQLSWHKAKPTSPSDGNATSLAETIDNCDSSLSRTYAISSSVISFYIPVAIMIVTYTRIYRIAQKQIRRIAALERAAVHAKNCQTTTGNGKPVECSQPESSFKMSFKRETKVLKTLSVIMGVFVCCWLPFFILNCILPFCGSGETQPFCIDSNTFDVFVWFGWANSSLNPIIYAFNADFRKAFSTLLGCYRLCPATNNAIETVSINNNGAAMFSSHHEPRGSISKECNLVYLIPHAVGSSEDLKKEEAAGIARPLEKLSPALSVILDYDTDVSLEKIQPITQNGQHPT

D(1A) dopamine receptor [2] = target: T1, D(1A) dopamine receptor; assay: Displacement of [3H]-SCH23390 from human D1 receptor expressed in HEK293 cells after 60 mins by microbeta counting based assay
Mu-type opioid receptor [3] = target: T2, Mu-type opioid receptor (Homo sapiens, UniProt P35372); assay: Displacement of [3H]-DAMGO from human MOR expressed in HEK293 cells after 60 mins by microbeta counting based assay
T2 sequence (P35372 whole entry): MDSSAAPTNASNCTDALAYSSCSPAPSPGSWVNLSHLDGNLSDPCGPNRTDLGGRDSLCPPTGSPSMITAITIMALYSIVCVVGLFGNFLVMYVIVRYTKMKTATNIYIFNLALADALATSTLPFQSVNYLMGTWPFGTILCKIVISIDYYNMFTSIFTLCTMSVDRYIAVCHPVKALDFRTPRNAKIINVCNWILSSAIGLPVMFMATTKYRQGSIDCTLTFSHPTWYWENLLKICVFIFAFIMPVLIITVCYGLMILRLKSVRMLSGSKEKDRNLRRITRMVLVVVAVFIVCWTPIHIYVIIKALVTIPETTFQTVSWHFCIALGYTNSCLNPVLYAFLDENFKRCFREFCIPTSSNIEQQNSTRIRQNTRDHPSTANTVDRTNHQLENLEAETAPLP

D(3) dopamine receptor = D(3) dopamine receptor (Homo sapiens, UniProt P35462); assay: Displacement of [3H]-(R)-(+)-7-OH-DPAT from human D3 receptor expressed in HEK293 cells after 90 mins by microbeta counting based assay
D(3) dopamine receptor, sequence (P35462 whole entry): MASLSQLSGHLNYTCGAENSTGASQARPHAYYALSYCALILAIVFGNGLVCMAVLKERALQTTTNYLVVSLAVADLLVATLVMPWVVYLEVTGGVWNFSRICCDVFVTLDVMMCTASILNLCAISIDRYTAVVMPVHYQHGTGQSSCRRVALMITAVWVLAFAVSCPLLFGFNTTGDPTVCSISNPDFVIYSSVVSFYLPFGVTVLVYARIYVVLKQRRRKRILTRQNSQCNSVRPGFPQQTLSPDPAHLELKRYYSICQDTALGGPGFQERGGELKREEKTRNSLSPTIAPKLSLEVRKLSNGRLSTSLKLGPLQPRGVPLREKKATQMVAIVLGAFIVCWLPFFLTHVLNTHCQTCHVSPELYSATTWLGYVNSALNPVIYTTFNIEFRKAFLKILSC

Mu-type opioid receptor [4] = target: T2, Mu-type opioid receptor; assay: Displacement of [3H]-DAMGO from human MOR expressed in HEK293 cells at 100 uM after 60 mins by microbeta counting based assay relative to control

D(2) dopamine receptor, sequence (P14416 whole entry): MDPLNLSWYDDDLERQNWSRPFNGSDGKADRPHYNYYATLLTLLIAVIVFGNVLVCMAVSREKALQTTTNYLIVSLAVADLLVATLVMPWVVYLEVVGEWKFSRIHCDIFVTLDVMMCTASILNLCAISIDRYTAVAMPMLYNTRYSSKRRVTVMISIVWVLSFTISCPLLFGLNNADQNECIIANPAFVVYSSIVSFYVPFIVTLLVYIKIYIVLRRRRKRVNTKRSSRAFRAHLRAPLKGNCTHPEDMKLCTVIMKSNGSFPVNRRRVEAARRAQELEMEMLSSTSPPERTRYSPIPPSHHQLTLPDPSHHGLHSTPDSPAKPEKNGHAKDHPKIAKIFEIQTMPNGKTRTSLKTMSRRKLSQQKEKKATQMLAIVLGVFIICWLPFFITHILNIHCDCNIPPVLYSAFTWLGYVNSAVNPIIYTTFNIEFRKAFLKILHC

| SMILES | Ki (D(2) dopamine receptor) [µM] | inhibition (D(1A) dopamine receptor [1]) [%] | Ki (D(1A) dopamine receptor [2]) [µM] | Ki (Mu-type opioid receptor [3]) [µM] | Ki (D(3) dopamine receptor) [µM] | inhibition (Mu-type opioid receptor [4]) [%] |
| --- | --- | --- | --- | --- | --- | --- |
| O=C(NCCCCN1CCO[C@@H]2c3cc(O)ccc3OC[C@@H]21)c1cc2ccccc2[nH]1 (relative stereo) | 9.42 | < 50 | > 100 | 12.3 | 13.8 |  |
| O=C(NCCCCN1CCO[C@H]2c3cc(O)ccc3OC[C@@H]21)c1cc2ccccc2[nH]1 (relative stereo) | 5.88 | < 50 | > 100 | 12.4 | 5.54 |  |
| C[C@H]1CO[C@@H](c2ccc(N)nc2)CN1CC(O)CCNC(=O)c1cc2ccccc2[nH]1 (stereo partly specified) |  | < 50 | > 100 |  |  |  |
| C[C@H]1CO[C@@H](c2ccc(N)nc2)CN1CC[C@H]1CC[C@H](NC(=O)c2cc3ccccc3[nH]2)CC1 (relative stereo) |  | < 50 | > 100 | 21.9 |  |  |
| CCCN1CCO[C@@H]2c3cc(O)ccc3OC[C@H]21 |  | < 50 |  |  |  |  |
| CCCN1CCO[C@H]2c3cc(O)ccc3OC[C@@H]21 |  | < 50 |  |  |  |  |
| CCCN1CC(c2ccc(N)nc2)OC[C@@H]1C (mixture of isomers) |  | < 50 | > 100 | > 100 |  | < 50 |
